Reference: ChEMBL document CHEMBL1142926, “A new modification of anti-tubercular active molecules” (Bioorg Med Chem, 2007)
Converted amounts (≈) assume the structure as drawn.

Key:
[1] = system: Mycobacterium tuberculosis; assay: Antimycobacterial activity against Mycobacterium tuberculosis H37Rv; format: functional, organism-based
[2] = system: Mycobacterium tuberculosis; assay: Antimycobacterial activity against Mycobacterium tuberculosis 331/88 after 14 days; format: functional; details: 336 h
Mycobacterium avium [3] = assay: Antimycobacterial activity against Mycobacterium avium 330/88 after 14 days; format: functional; details: 336 h
Mycobacterium kansasii [4] = assay: Antimycobacterial activity against Mycobacterium kansasii 235/80 after 14 days; format: functional; details: 336 h
Mycobacterium kansasii [5] = assay: Antimycobacterial activity against Mycobacterium kansasii 6509/96 after 14 days; format: functional; details: 336 h
[6] = system: Mycobacterium tuberculosis; assay: Antimycobacterial activity against Mycobacterium tuberculosis 331/88 after 21 days; format: functional; details: 504 h
Mycobacterium avium [7] = assay: Antimycobacterial activity against Mycobacterium avium 330/88 after 21 days; format: functional; details: 504 h
Mycobacterium kansasii [8] = assay: Antimycobacterial activity against Mycobacterium kansasii 235/80 after 7 days; format: functional; details: 168 h
Mycobacterium kansasii [9] = assay: Antimycobacterial activity against Mycobacterium kansasii 235/80 after 21 days; format: functional; details: 504 h
Mycobacterium kansasii [10] = assay: Antimycobacterial activity against Mycobacterium kansasii 6509/96 after 7 days; format: functional; details: 168 h
Mycobacterium kansasii [11] = assay: Antimycobacterial activity against Mycobacterium kansasii 6509/96 after 21 days; format: functional; details: 504 h
[12] = Stability after 7 days; format: physicochemical; details: read-out: Stability
[13] = Stability after 14 days; format: physicochemical; details: read-out: Stability
[14] = Stability after 21 days; format: physicochemical; details: read-out: Stability
[15] = system: Mycobacterium tuberculosis; assay: Antimycobacterial activity against Mycobacterium tuberculosis H37Rv at 6.25 ug/mL; format: functional
[16] = Lipophilicity, log K of the compound; format: physicochemical; details: octanol/water
[17] = Stability within 7 days; format: physicochemical; details: 168 h

Row | Compound | IC50 [1] [µg/mL] | MIC [1] [µg/mL] | MIC [2] [µM] | MIC (Mycobacterium avium [3]) [µM] | MIC (Mycobacterium kansasii [4]) [µM] | MIC (Mycobacterium kansasii [5]) [µM] | MIC [6] [µM] | MIC (Mycobacterium avium [7]) [µM] | MIC (Mycobacterium kansasii [8]) [µM] | MIC (Mycobacterium kansasii [9]) [µM] | MIC (Mycobacterium kansasii [10]) [µM] | MIC (Mycobacterium kansasii [11]) [µM] | remaining at 168 h [12] [%] | remaining at 336 h [13] [%] | remaining at 504 h [14] [%] | inhibition at 6.25 µg/mL [15] [%] | log K [16] | Activity [17]
1 | NNC(=O)c1ccncc1 [ISONIAZID] | > 100 | 0.025 (≈ 0.182 µM) | 1 (≈ 0.137 µg/mL) | > 250 | > 250 | 4 (≈ 0.549 µg/mL) | 1 (≈ 0.137 µg/mL) | > 250 | > 250 | > 250 | 2 (≈ 0.274 µg/mL) | 4 (≈ 0.549 µg/mL) | – | – | – | – | – | –
2 | O=C(N/N=C\N1CCN(c2cc3c(cc2F)c(=O)c(C(=O)O)cn3C2CC2)CC1)c1ccncc1 | – | 3.13 (≈ 6.54 µM) | 2 (≈ 0.957 µg/mL) | 125 (≈ 59.8 µg/mL) | 4 (≈ 1.91 µg/mL) | 4 (≈ 1.91 µg/mL) | 4 (≈ 1.91 µg/mL) | 250 (≈ 120 µg/mL) | 2 (≈ 0.957 µg/mL) | 8 (≈ 3.83 µg/mL) | 2 (≈ 0.957 µg/mL) | 8 (≈ 3.83 µg/mL) | 30 | 10 | 3 | 99 | 0.9159 | –
3 | O=C(N/N=C/NCc1ccccn1)c1ccncc1 | > 10 | 6.25 (≈ 24.5 µM) | 16 (≈ 4.08 µg/mL) | 1000 (≈ 255 µg/mL) | 1000 (≈ 255 µg/mL) | 125 (≈ 31.9 µg/mL) | 32 (≈ 8.17 µg/mL) | > 1000 | 1000 (≈ 255 µg/mL) | 1000 (≈ 255 µg/mL) | 62.5 (≈ 16 µg/mL) | 125 (≈ 31.9 µg/mL) | – | – | – | 92 | 0.3343 | –
4 | NC(=O)c1cnccn1 [PYRAZINAMIDE] | – | 6 (≈ 48.7 µM) | 8 (≈ 0.985 µg/mL) | > 128 | > 128 | – | 8 (≈ 0.985 µg/mL) | > 128 | > 128 | > 128 | – | – | – | – | – | – | – | –
5 | O=C(N/N=C/N1CCOCC1)c1ccncc1 | – | > 6.25 | – | – | – | – | – | – | – | – | – | – | – | – | – | 74 | 0.2653 | –
6 | CN(C)/C=N/C(=O)c1cnccn1 | – | > 6.25 | – | – | – | – | – | – | – | – | – | – | – | – | – | 1 | 0.1718 | –
7 | O=C(/N=C/N1CCN(c2cc3c(cc2F)c(=O)c(C(=O)O)cn3C2CC2)CC1)c1cnccn1 | > 10 | 0.78 (≈ 1.68 µM) | 2 (≈ 0.929 µg/mL) | 62.5 (≈ 29 µg/mL) | 2 (≈ 0.929 µg/mL) | 2 (≈ 0.929 µg/mL) | 4 (≈ 1.86 µg/mL) | 125 (≈ 58.1 µg/mL) | 1 (≈ 0.464 µg/mL) | 4 (≈ 1.86 µg/mL) | 2 (≈ 0.929 µg/mL) | 4 (≈ 1.86 µg/mL) | – | – | – | 100 | 0.97 | Not Active
8 | O=C(/N=C/Nc1ccc(C(=O)O)c(O)c1)c1cnccn1 | > 10 | 3.13 (≈ 10.9 µM) | 8 (≈ 2.29 µg/mL) | 32 (≈ 9.16 µg/mL) | 32 (≈ 9.16 µg/mL) | 16 (≈ 4.58 µg/mL) | 16 (≈ 4.58 µg/mL) | 62.5 (≈ 17.9 µg/mL) | 16 (≈ 4.58 µg/mL) | 32 (≈ 9.16 µg/mL) | 8 (≈ 2.29 µg/mL) | 32 (≈ 9.16 µg/mL) | 10 | 1 | 0.1 | 98 | 0.3695 | –
9 | O=C(N/N=C/Nc1ccc(C(=O)O)c(O)c1)c1ccncc1 | > 62.5 | 0.39 (≈ 1.3 µM) | 4 (≈ 1.2 µg/mL) | 125 (≈ 37.5 µg/mL) | 1000 (≈ 300 µg/mL) | 250 (≈ 75.1 µg/mL) | 8 (≈ 2.4 µg/mL) | 125 (≈ 37.5 µg/mL) | 500 (≈ 150 µg/mL) | 1000 (≈ 300 µg/mL) | 125 (≈ 37.5 µg/mL) | 250 (≈ 75.1 µg/mL) | – | – | – | 96 | 0.366 | Not Active
10 | CN(C)/C=N/NC(=O)c1ccncc1 | – | > 6.25 | 16 (≈ 3.08 µg/mL) | 1000 (≈ 192 µg/mL) | 500 (≈ 96.1 µg/mL) | 250 (≈ 48.1 µg/mL) | 16 (≈ 3.08 µg/mL) | > 1000 | 250 (≈ 48.1 µg/mL) | 1000 (≈ 192 µg/mL) | 125 (≈ 24 µg/mL) | 500 (≈ 96.1 µg/mL) | – | – | – | 1 | 0.252 | –
11 | O=C(N/N=C/NCc1ccccc1)c1ccncc1 | > 10 | > 6.25 | 32 (≈ 8.14 µg/mL) | 1000 (≈ 254 µg/mL) | 1000 (≈ 254 µg/mL) | 250 (≈ 63.6 µg/mL) | 65.5 (≈ 16.7 µg/mL) | > 1000 | 500 (≈ 127 µg/mL) | 1000 (≈ 254 µg/mL) | 125 (≈ 31.8 µg/mL) | 250 (≈ 63.6 µg/mL) | – | – | – | 93 | 0.5426 | –
12 | O=C(O)c1cn(C2CC2)c2cc(N3CCNCC3)c(F)cc2c1=O [CIPROFLOXACIN] | > 10 | 2 (≈ 6.04 µM) | 16 (≈ 5.3 µg/mL) | – | – | – | – | – | – | – | – | – | – | – | – | 98 | – | –
13 | O=C(NN/C=N/C(=O)c1cnccn1)c1ccncc1 | > 10 | 0.1 (≈ 0.37 µM) | 4 (≈ 1.08 µg/mL) | 125 (≈ 33.8 µg/mL) | 1000 (≈ 270 µg/mL) | 8 (≈ 2.16 µg/mL) | 8 (≈ 2.16 µg/mL) | 125 (≈ 33.8 µg/mL) | 500 (≈ 135 µg/mL) | 1000 (≈ 270 µg/mL) | 8 (≈ 2.16 µg/mL) | 16 (≈ 4.32 µg/mL) | – | – | – | 94 | 0.3562 | Not Active
14 | CCC(CO)N1CCN(C(CC)CO)C1OS(=O)(=O)c1ccc(C)cc1 (centres undefined) | – | > 6.25 | 250 (≈ 96.6 µg/mL) | 500 (≈ 193 µg/mL) | 1000 (≈ 387 µg/mL) | 500 (≈ 193 µg/mL) | 500 (≈ 193 µg/mL) | 1000 (≈ 387 µg/mL) | 500 (≈ 193 µg/mL) | 1000 (≈ 387 µg/mL) | 250 (≈ 96.6 µg/mL) | 1000 (≈ 387 µg/mL) | – | – | – | 0 | 0.243 | –
15 | O=C(N/N=C/NNC(=O)c1ccncc1)c1ccncc1 | > 62.5 | 0.39 (≈ 1.37 µM) | – | – | – | – | – | – | – | – | – | – | 19 | 4 | 1 | 96 | 0.3027 | –
